{"source": "patent US20250152605A1", "about": "“METHOD AND DRUG FOR TREATING NEURONAL CEROID LIPOFUSCINOSIS” (priority 2021, published 2025)", "key": {"[1]": {"test_system": "CLN3^Δex7/8 human neural stem cells", "test": "Tandem LC3 autophagic flux in human neural stem cells", "format": "cell-based", "text": "After lysosomal function defects were detected in CLN3^Δex7/8 neural stem cells and neurons, autophagic flux in the cells was further examined. Equal amounts of lentivirus packaged with tandem LC3 plasmid were used to infect wild-type and CLN3^Δex7/8 cells to label intracellular autophagosomes.\nAutophagosomes in neural stem cells were labeled using tandem LC3, and the number of autophagosomes with green fluorescence and those with red fluorescence only were observed by high-intensity laser confocal microscope."}, "[2]": {"test_system": "CLN3^Δex7/8 neural stem cells", "test": "Differentiation of CLN3^Δex7/8 neural stem cells into neurons", "format": "cell-based, human", "settings": "after 17 days of differentiation", "procedure": "When the density of human induced neural stem cells reached 85-95%, passage was performed at 1:20-1:50 according to the above method. The medium on the day of passage (recorded as Day 1 of differentiation) was human neural stem cell maintenance medium with 10 μM Y27632, which was removed after 24 h, and culture continued in human neural stem cell maintenance medium for 48 hours. On Day 4 of differentiation, the medium was changed to human neuronal differentiation medium (human neuronal medium: DMEM/F12 medium+10 ng/ml hBDNF+10 ng/ml hGDNF+300 ng/mL cAMP+0.2 mM vitamin C+1×N2+1×B27+1% Penicillin/Streptomycin), with medium change halfly every other day. Human neurons highly expressing MAP2 and TUJ1 proteins were obtained on Day 17 of differentiation. Thereafter, the human neurons could be continuously cultured in the human neuron differentiation medium, with medium change halfly every other day.\nStarting from the same number of human neural stem cells induced to differentiate into human neurons, CLN3^Δex7/8 neural stem cells eventually generated a lower number of neurons than wild-type cells. During the process of neurons differentiation, the seven small molecule compounds obtained above were each added to the culture medium and observed for their effects on the differentiation process of CLN3^Δex7/8 neural stem cells into neurons."}, "cathepsin D": {"test_system": "cathepsin D", "test": "Intracellular cathepsin D activity", "format": "cell-based, human", "settings": "CLN3^Δex7/8 neurons", "procedure": "The activity of intracellular protease cathepsin D was measured using Abcam's Cathepsin D Activity Assay kit. Each sample was prepared in more than 3 replicates. […]"}, "SCMAS protein": {"test_system": "SCMAS protein", "test": "SCMAS protein storage in neurons (immunofluorescence staining and western blot)", "format": "cell-based, human", "settings": "CLN3^Δex7/8 neurons", "procedure": "Sample preparation: for adherent cultured cells, exemplified by cells cultured in a six-well cell plate, the cell medium was aspirated and the cells were washed once with dPBS. About 100 μL of RIPA lysate (50 mM Tris-HCl, pH 7.5, 150 mM NaCl, 0.25% Na-deoxycholate, 0.1% NP-40, 0.1% Triton X-100) containing protease inhibitors and phosphatase inhibitors was added to each well. The cell lysate was scraped off completely with a cell scraper and collected into 1.5 mL EP tubes. Lysis was continued for 30 minutes on ice. For animal tissue, the weight of the animal tissue was weighed, and RIPA lysate containing protease inhibitors and phosphatase inhibitors was added with five times the volume of the animal tissue. The tissue was grinded on ice with a tissue grinder until there is no obvious tissue mass, collected into 1.5 mL EP tubes, and placed on ice for further lysis for 30 min. […]"}, "Cln3 KO mice": {"test_system": "Cln3 KO mice", "test": "Immunohistochemical staining of SCMAS in Cln3 KO mouse brain", "format": "in vivo", "settings": "Cln3 KO mice treated from 21 days to 2 months of age"}}, "data": [{"smiles": "C/C=C1\\C(=O)C[C@H]2[C@@H]3CCC4=CC(=O)CC[C@]4(C)[C@H]3CC[C@]12C", "note": "[Compound G, (Z)-guggulsterone]", "values": [{"measurement": "number of red fluorescence single-positive autophagosomes", "setting": "[1]", "result": "increased the number of red fluorescence single-positive autophagosomes"}, {"measurement": "MAP2 and TUJ1-positive neurons generated from the same number of cells", "setting": "[2]", "result": "generate more MAP2 and TUJ1-positive neurons"}, {"measurement": "activity of cathepsins D (fluorescence intensity)", "setting": "cathepsin D", "result": "significantly increased"}, {"measurement": "abnormal storage of SCMAS protein", "setting": "SCMAS protein", "result": "significant reduction"}, {"measurement": "substances (SCMAS) abnormally stored in the brains", "setting": "Cln3 KO mice", "result": "alleviate the amount of the substances abnormally stored in the brains of Cln3 KO mice to a certain extent"}]}]}
